The assay concerns IL-2 production. The assay can be described thus: Inhibition of IL-2 production in PHA-activated Jurkat cells. It counts as cell-based. Conditions: Homo sapiens, PHA 2.5 μg/mL, 20 hours. The method, then: Jurkat cells were placed in a 96 well plate (0.5 million cells per well in 1% FBS medium) then test compounds of this invention were added at different concentrations. After 10 minutes, the cells were activated with PHA (final concentration 2.5 μg/mL) and incubated for 20 hours at 37° C. under CO2. The final volume was 200 μL. Following incubation, the cells were centrifuged and the supernatants collected and stored at −70° C. prior to assaying for IL-2 production. A commercial kit (IL-2 Eli-pair, Diaclone Research, Besancon, France) was used to detect production of IL-2, from which dose response curves were obtained. The IC50 value was calculated as the concentration at which. 50% of maximum IL-2 production after stimulation was inhibited versus a non-stimulation control.

As a reminder, the IC50 is the concentration that gives 50% inhibition. The low end stands for greater potency, the high end for weaker potency. For the compound `CCCCC(CC)C(=O)Nc1ccc(-n2c(C(F)(F)F)nc3cc(OC)ccc32)cc1` (centres unmarked) [Compound 87, 2-Ethyl-N-[4-(2-trifluoromethyl-5-methoxy-benzoimidazol-1-yl)-phenyl]-hexanoic acid amide], the IC50 (bins given in nM) is 100 to 500 nM.

Compound `CCCCCCC(=O)Nc1ccc(-n2c(C(F)(F)F)nc3cc(OC)ccc32)cc1` [Compound 88, N-[4-(2-trifluoromethyl-5-methoxy-benzoimidazol-1-yl)-phenyl]-heptanoic acid amide] returned an IC50 (bins given in nM) of 100 to 500 nM.

As to `COc1cccc(C(=O)Nc2ccc(-n3c(C(F)(F)F)nc4cc(OC)ccc43)cc2)c1` [Compound 89, 3-Methoxy-N-[4-(2-trifluoromethyl-5-methoxy-benzoimidazol-1-yl)-phenyl]-benzamide], under “bins given in nM”, the half-inhibitory concentration (IC50) lay within 100 to 500 nM.

`COc1ccc2c(c1)nc(C(F)(F)F)n2-c1ccc(NC(=O)C2CC2c2ccccc2)cc1` (centres unmarked) [Compound 90, 2-Phenyl-N-[4-(2-trifluoromethyl-5-methoxy-benzoimidazol-1-yl)-phenyl]-cyclopropanecarboxylic acid amide]: the IC50 (bins given in nM) lay in the range of 100 to 500 nM.

In turn, `COC(=O)c1ccc2c(c1)nc(C(F)(F)F)n2-c1ccc(NC(=O)c2cccc(F)c2F)cc1` [Compound 96, 2-Trifluoromethyl-1-[4-(2,3-difluoro-benzoylamimo)-phenyl]-1H-benzoimidazole-5-carboxylic acid methyl ester] had a 50% inhibitory concentration (IC50) (bins given in nM) of less than 100 nM.

For `COc1ccc2c(c1)nc(C(F)(F)F)n2-c1ccc(NC(=O)c2c(F)c(F)c(F)c(F)c2F)cc1` [Compound 97, 2,3,4,5,6-Pentafluoro-N-[4-(2-trifluoromethyl-5-methoxy-benzoimidazol-1-yl)-phenyl]-benzamide], under “bins given in nM”, the IC50 is less than 100 nM.

For the compound `COc1ccc2c(c1)nc(C(F)(F)F)n2-c1ccc(NC(=O)c2ccc(F)cc2F)cc1` [Compound 98, 2,4-Difluoro-N-[4-(2-trifluoromethyl-5-methoxy-benzoimidazol-1-yl)-phenyl]-benzamide], the concentration for half-maximal inhibition (IC50) (bins given in nM) was less than 100 nM.

For the setting “bins given in nM”, `O=C(Nc1ccc(-n2c(C(F)(F)F)nc3cc(O)ccc32)cc1)c1cccc(F)c1F` [Compound 99, 2,3-Difluoro-N-[4-(2-trifluoromethyl-5-hydroxy-benzoimidazol-1-yl)-phenyl]-benzamide] had a 50% inhibitory concentration (IC50) of less than 100 nM.

With `COc1ccc2c(c1)nc(C(F)(F)F)n2-c1ccc(NC(=O)c2cc(F)ccc2F)cc1` [Compound 100, 2,5-Difluoro-N-[4-(2-trifluoromethyl-5-methoxy-benzoimidazol-1-yl)-phenyl]-benzamide], the IC50 (bins given in nM) is less than 100 nM.

`COc1ccc2c(c1)nc(C(F)(F)F)n2-c1ccc(NC(=O)c2cccc(C#N)c2)cc1` [Compound 101, 3-Cyano-N-[4-(2-trifluoromethyl-5-methoxy-benzoimidazol-1-yl)-phenyl]-benzamide] returned a concentration for half-maximal inhibition (IC50) (bins given in nM) of less than 100 nM.

On to `COc1ccc2c(c1)nc(C(F)(F)F)n2-c1ccc(NC(=O)c2c(Cl)cccc2Cl)cc1` [Compound 102, 2,6-Dichloro-N-[4-(2-trifluoromethyl-5-methoxy-benzoimidazol-1-yl)-phenyl]-benzamide], for which the IC50 (bins given in nM) is less than 100 nM.

For the compound `COc1ccc2c(c1)nc(C(F)(F)F)n2-c1ccc(NC(=O)c2ccccc2Br)cc1` [Compound 104, 2-Bromo-N-[4-(2-trifluoromethyl-5-methoxy-benzoimidazol-1-yl)-phenyl]-benzamide], where the note is “bins given in nM”, the concentration for half-maximal inhibition (IC50) was less than 100 nM.

The compound `COc1ccc2c(c1)nc(C(F)(F)F)n2-c1ccc(NC(=O)C2CCCC2)cc1` [Compound 105, N-[4-(2-trifluoromethyl-5-methoxy-benzoimidazol-1-yl)-phenyl]-cyclopentanecarboxylic acid amide] displayed a 50% inhibitory concentration (IC50) (bins given in nM) of less than 100 nM.

The compound `COc1ccc2c(c1)nc(C(F)(F)F)n2-c1ccc(NC(=O)C2CCCCC2)cc1` [Compound 106, N-[4-(2-trifluoromethyl-5-methoxy-benzoimidazol-1-yl)-phenyl]-cyclohexanecarboxylic acid amide] gave a half-maximal inhibitory concentration (IC50) (bins given in nM) of less than 100 nM.

With `COc1ccc2c(c1)nc(C(F)(F)F)n2-c1ccc(NC(=O)c2ccccc2[N+](=O)[O-])cc1` [Compound 107, 2-Nitro-N-[4-(2-trifluoromethyl-5-methoxy-benzoimidazol-1-yl)-phenyl]-benzamide], the IC50 (bins given in nM) is less than 100 nM.

With `COc1ccc2c(c1)nc(C(F)(F)F)n2-c1ccc(NC(=O)c2ccc(Cl)cc2)cc1` [Compound 108, 4-Chloro-N-[4-(2-trifluoromethyl-5-methoxy-benzoimidazol-1-yl)-phenyl]-benzamide], the half-inhibitory concentration (IC50) (bins given in nM) was less than 100 nM.

Take `COc1ccc2c(c1)nc(C(F)(F)F)n2-c1ccc(NC(=O)c2cccc(Cl)c2)cc1` [Compound 109, 3-Chloro-N-[4-(2-trifluoromethyl-5-methoxy-benzoimidazol-1-yl)-phenyl]-benzamide]: the IC50 (bins given in nM) was less than 100 nM.

For the compound `COc1ccc2c(c1)nc(C(F)(F)F)n2-c1ccc(NC(=O)c2ccc(F)c(F)c2)cc1` [Compound 110, 3,4-Difluoro-N-[4-(2-trifluoromethyl-5-methoxy-benzoimidazol-1-yl)-phenyl]-benzamide], where the note is “bins given in nM”, the IC50 was less than 100 nM.

For `COc1ccc2c(c1)nc(C(F)(F)F)n2-c1ccc(NC(=O)c2ccccc2)cc1` [Compound 111, N-[4-(2-trifluoromethyl-5-methoxy-benzoimidazol-1-yl)-phenyl]-benzamide], the IC50 (bins given in nM) is less than 100 nM.

On to `CC(C)Oc1ccc2c(c1)nc(C(F)(F)F)n2-c1ccc(NC(=O)c2cccc(F)c2F)cc1` [Compound 112, 2,3-Difluoro-N-[4-(2-trifluoromethyl-5-isopropoxy-benzoimidazol-1-yl)-phenyl]-benzamide], for which the IC50 (bins given in nM) is less than 100 nM.

As for `NC(=O)c1ccc2c(c1)nc(C(F)(F)F)n2-c1ccc(NC(=O)c2cccc(F)c2F)cc1` [Compound 113, 2,3-Difluoro-N-[4-(2-trifluoromethyl-5-carbamoyl-benzoimidazol-1-yl)-phenyl]-benzamide], the half-maximal inhibitory concentration (IC50) (bins given in nM) is less than 100 nM.

As for `COc1ccc2c(c1)nc(C(F)(F)F)n2-c1ccc(NC(=O)c2ccncc2)cc1` [Compound 114, N-[4-(2-trifluoromethyl-5-methoxy-benzoimidazol-1-yl)-phenyl]-isonicotinamide], under “bins given in nM”, the IC50 was less than 100 nM.

For the setting “bins given in nM”, `COc1ccc2c(c1)nc(C(F)(F)F)n2-c1ccc(NC(=O)c2ccccc2I)cc1` [Compound 115, 2-Iodo-N-[4-(2-trifluoromethyl-5-methoxy-benzoimidazol-1-yl)-phenyl]-benzamide] returned an IC50 of less than 100 nM.

`COc1ccc2c(c1)nc(C(F)(F)F)n2-c1ccc(NC(=O)CC(C)C)cc1` [Compound 116, 3-Methyl-N-[4-(2-trifluoromethyl-5-methoxy-benzoimidazol-1-yl)-phenyl]-butyramide]: the half-inhibitory concentration (IC50) (bins given in nM) is less than 100 nM.

`COc1ccc2c(c1)nc(C(F)(F)F)n2-c1ccc(NC(=O)c2cc(Cl)cc(Cl)c2)cc1` [Compound 117, 3,5-Dichloro-N-[4-(2-trifluoromethyl-5-methoxy-benzoimidazol-1-yl)-phenyl]-benzamide] had an IC50 (bins given in nM) of less than 100 nM.

Under “bins given in nM”, `COc1ccc2c(c1)nc(C(F)(F)F)n2-c1ccc(NC(=O)c2cccc(Br)c2)cc1` [Compound 118, 3-Bromo-N-[4-(2-trifluoromethyl-5-methoxy-benzoimidazol-1-yl)-phenyl]-benzamide] came in with an IC50 of less than 100 nM.

Regarding `COc1ccc2c(c1)nc(C(F)(F)F)n2-c1ccc(NC(=O)c2ccc(Br)cc2)cc1` [Compound 119, 4-Bromo-N-[4-(2-trifluoromethyl-5-methoxy-benzoimidazol-1-yl)-phenyl]-benzamide], the IC50 (bins given in nM) was less than 100 nM.

For the setting “bins given with μM limit”, `COc1ccc2c(c1)nc(C(F)(F)F)n2-c1ccc(NC(=O)c2ccco2)cc1` [Compound 120, Furan-2-carboxylic acid {N-[4-(2-trifluoromethyl-5-methoxy-benzoimidazol-1-yl)-phenyl]}-amide] had a half-inhibitory concentration (IC50) greater than 1000 nM.

Where the note is “bins given with μM limit”, `COc1ccc2c(c1)nc(C(F)(F)F)n2-c1ccc(NC(=O)C2CCCN2C(=O)C(F)(F)F)cc1` (centres unmarked) [Compound 121, 1-(2,2,2-Trifluoroacetyl)-N-[4-(2-trifluoromethyl-5-methoxy-benzoimidazol-1-yl)-phenyl]-pyrrolidine-2-carboxylic acid amide] showed an IC50 greater than 1000 nM.

As to `C=CC(=O)Nc1ccc(-n2c(C(F)(F)F)nc3cc(OC)ccc32)cc1` [Compound 122, N-[4-(2-trifluoromethyl-5-methoxy-benzoimidazol-1-yl)-phenyl]-acrylamide], the IC50 (bins given with μM limit) is greater than 1000 nM.

Compound `COc1ccc2c(c1)nc(C(F)(F)F)n2-c1ccc(NC(=O)COCc2ccccc2)cc1` [Compound 123, 2-Benzyloxy-N-[4-(2-trifluoromethyl-5-methoxy-benzoimidazol-1-yl)-phenyl]-acetamide] displayed an IC50 (bins given with μM limit) greater than 1000 nM.

In turn, `COc1ccc2c(c1)nc(C(F)(F)F)n2-c1ccc(NC(=O)CSc2ccccc2)cc1` [Compound 124, 2-Phenylsulfanyl-N-[4-(2-trifluoromethyl-5-methoxy-benzoimidazol-1-yl)-phenyl]-acetamide] showed a concentration for half-maximal inhibition (IC50) (bins given with μM limit) greater than 1000 nM.

On to `CCOC(=O)CCC(=O)Nc1ccc(-n2c(C(F)(F)F)nc3cc(OC)ccc32)cc1` [Compound 125, N-[4-(2-trifluoromethyl-5-methoxy-benzoimidazol-1-yl)-phenyl]-succinamic acid ethyl ester], for which the half-inhibitory concentration (IC50) (bins given with μM limit) is greater than 1000 nM.

Under “bins given with μM limit”, `COc1ccc2c(c1)nc(C(F)(F)F)n2-c1ccc(NC(=O)c2ccccc2Cl)cc1` [Compound 126, 2-Chloro-N-[4-(2-trifluoromethyl-5-methoxy-benzoimidazol-1-yl)-phenyl]-benzamide] came in with a half-inhibitory concentration (IC50) greater than 1000 nM.

In turn, `COc1ccc2c(c1)nc(C(F)(F)F)n2-c1ccc(NC(=O)c2cc(C(F)(F)F)ccc2C(F)(F)F)cc1` [Compound 127, 2,5-Di-(trifluoromethyl)-N-[4-(2-trifluoromethyl-5-methoxy-benzoimidazol-1-yl)-phenyl]-benzamide] registered a 50% inhibitory concentration (IC50) (bins given with μM limit) greater than 1000 nM.
